Key:
chickweed = assay: Test Example 5: herbicidal effect by foliage application, plastic box (Table 20, symbol P); type: in vivo, common chickweed (Stellaria media); conditions: amount of applied herbicide 320 g/ha; foliage application after 14-day growth; evaluated three weeks after application
Procedure, shortened: (§1)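 Sow seeds spot-wise in sterilized diluvial soil; cover with ~1.5 cm soil. Grow 14 days in greenhouse, 25° C. to 30° C. Spray foliage with emulsion diluted to predetermined amount. Rate effect after 3 weeks.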

blackgrass [1] = assay: Test Example 5: herbicidal effect by foliage application, plastic box (Table 20, symbol J); type: in vivo, blackgrass (Alopecurus myosuroides); conditions: amount of applied herbicide 320 g/ha; foliage application after 14-day growth; evaluated three weeks after application
Procedure, shortened: as §1

velvetleaf [2] = assay: Test Example 5: herbicidal effect by foliage application, plastic box (Table 20, symbol M); type: in vivo, velvetleaf (Abutilon theophrasti); conditions: amount of applied herbicide 320 g/ha; foliage application after 14-day growth; evaluated three weeks after application
Procedure, shortened: as §1

lambsquarters = assay: Test Example 4: herbicidal effect by soil treatment (Table 19, symbol O); type: in vivo, lambsquarters (Chenopodium album); conditions: amount of applied herbicide 320 g/ha
Procedure, shortened: (§2)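 Applied as a water-diluted emulsion, the compound was sprayed onto soil covering newly sown seeds. Evaluation came three weeks after application, in a greenhouse held at 25° C. to 30° C.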

barnyard grass [3] = assay: Test Example 4: herbicidal effect by soil treatment (Table 19, symbol H); type: in vivo, barnyard grass (Echinochloa crus-galli); conditions: amount of applied herbicide 320 g/ha
Procedure, shortened: as §2

late watergrass [4] = assay: Test Example 1: herbicidal activity, application before weed generation under submerged conditions (Table 16, symbol A); type: in vivo, late watergrass (Echinochloa oryzicola); conditions: amount of applied herbicide 320 g/ha
Procedure, shortened: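 Emulsion formulation, water-diluted to set dose, was put onto the flooded surface (4 cm depth, alluvial soil) the same day weeds were sown and 2.5-leaf rice transplanted. After 3 weeks at 25-30 °C under glass, each species was rated 0 (≤5% kill) to 5 (≥90% kill).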

southern crabgrass = assay: Test Example 4: herbicidal effect by soil treatment (Table 19, symbol F); type: in vivo, southern crabgrass (Digitaria ciliaris); conditions: amount of applied herbicide 320 g/ha
Procedure, shortened: as §2

green foxtail = assay: Test Example 5: herbicidal effect by foliage application, plastic box (Table 20, symbol G); type: in vivo, green foxtail (Setaria viridis); conditions: amount of applied herbicide 320 g/ha; foliage application after 14-day growth; evaluated three weeks after application
Procedure, shortened: as §1

late watergrass [5] = assay: Test Example 2: herbicidal activity, application during weed generation under submerged conditions (Table 17, symbol A); type: in vivo, late watergrass (Echinochloa oryzicola); conditions: AAH 320 g/ha; application during weed generation, submerged conditions
Procedure, shortened: (§3)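 In this pot test, flooded alluvial soil (water depth 4 cm) holds all three species sown as a mixture. Once seedlings have one to two leaves, the compound's emulsion, thinned with water to the intended dose, is poured on the water; grading follows after three weeks on the earlier criteria.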

barnyard grass [6] = assay: Test Example 5: herbicidal effect by foliage application, plastic box (Table 20, symbol H); type: in vivo, barnyard grass (Echinochloa crus-galli); conditions: amount of applied herbicide 320 g/ha; foliage application after 14-day growth; evaluated three weeks after application
Procedure, shortened: as §1

Italian ryegrass = assay: Test Example 5: herbicidal effect by foliage application, plastic box (Table 20, symbol K); type: in vivo, Italian ryegrass (Lolium multiflorum); conditions: amount of applied herbicide 320 g/ha; foliage application after 14-day growth; evaluated three weeks after application
Procedure, shortened: as §1

oval-leafed pondweed = assay: Test Example 2: herbicidal activity, application during weed generation under submerged conditions (Table 17, symbol C); type: in vivo, oval-leafed pondweed (Monochoria vaginalis); conditions: AAH 320 g/ha; application during weed generation, submerged conditions
Procedure, shortened: as §3

blackgrass [7] = assay: Test Example 4: herbicidal effect by soil treatment (Table 19, symbol J); type: in vivo, blackgrass (Alopecurus myosuroides); conditions: amount of applied herbicide 320 g/ha
Procedure, shortened: as §2

persian speedwell = assay: Test Example 4: herbicidal effect by soil treatment (Table 19, symbol R); type: in vivo, Persian speedwell (Veronica persica); conditions: amount of applied herbicide 320 g/ha
Procedure, shortened: as §2

barnyard grass [8] = assay: Test Example 3: herbicidal effect by foliage application, Wagner pot (Table 18, symbol H); type: in vivo, barnyard grass (Echinochloa crus-galli); conditions: 320 g/ha
Procedure, shortened: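 Plants were sown in alluvial soil held under 0.1–0.5 cm standing water and grown 14 days in a greenhouse at 25–30 °C. An emulsifiable formulation, water-diluted to the set dose, was then sprayed onto the foliage, and effects were scored three weeks later using previously defined criteria.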

velvetleaf [9] = assay: Test Example 4: herbicidal effect by soil treatment (Table 19, symbol M); type: in vivo, velvetleaf (Abutilon theophrasti); conditions: amount of applied herbicide 320 g/ha
Procedure, shortened: as §2

SMILES	Herbicidal effect by foliage application, P: chickweed (chickweed)	Herbicidal effect by foliage application, J: blackgrass (blackgrass [1])	Herbicidal effect by foliage application, M: velvetleaf (velvetleaf [2])	Herbicidal effect by soil treatment, O: lambsquarters (lambsquarters)	Herbicidal effect by soil treatment, H: barnyard grass (barnyard grass [3])	Herbicidal effect, A: late watergrass (late watergrass [4])	Herbicidal effect by soil treatment, F: southern crabgrass (southern crabgrass)	Herbicidal effect by foliage application, G: green foxtail (green foxtail)	herbicidal effect rating, A: late watergrass (late watergrass [5])	Herbicidal effect by foliage application, H: barnyard grass (barnyard grass [6])	Herbicidal effect by foliage application, K: Italian ryegrass (Italian ryegrass)	herbicidal effect rating, C: oval-leafed pondweed (oval-leafed pondweed)	Herbicidal effect by soil treatment, J: blackgrass (blackgrass [7])	Herbicidal effect by soil treatment, R: persian speedwell (persian speedwell)	herbicidal effect on barnyard grass (H) (barnyard grass [8])	Herbicidal effect by soil treatment, M: velvetleaf (velvetleaf [9])	O: lambsquarters, herbicidal effect grade (lambsquarters)	H: barnyard grass, herbicidal effect grade (barnyard grass [3])	F: southern crabgrass, herbicidal effect grade (southern crabgrass)	J: blackgrass, herbicidal effect grade (blackgrass [7])	also measured
COc1ccc(-c2sc3c(C)cccc3c2-c2c(O)c(C)nn(C)c2=O)cc1 [4-110]	5 (Herbicidal rate of 90% or more (almost completely withered))	4 (Herbicidal rate of 70% or more and less than 90%)	5 (Herbicidal rate of 90% or more (almost completely withered))	5 (Herbicidal rate of 90% or more (almost completely withered))	0 (Herbicidal rate of 5% or less (almost no effect))	5 (Herbicidal rate of 90% or more (almost completely withered))	0 (Herbicidal rate of 5% or less (almost no effect))	3 (Herbicidal rate of 40% or more and less than 70%)	0 (Herbicidal rate of 5% or less (almost no effect))	2 (Herbicidal rate of 20% or more and less than 40%)	5 (Herbicidal rate of 90% or more (almost completely withered))	5 (Herbicidal rate of 90% or more (almost completely withered))	0 (Herbicidal rate of 5% or less (almost no effect))	4 (Herbicidal rate of 70% or more and less than 90%)	5 (Herbicidal rate of 90% or more (almost completely withered))	3 (Herbicidal rate of 40% or more and less than 70%)					
CCSc1ccc(-c2sc3c(C)cccc3c2-c2c(O)c(C)nn(C)c2=O)cc1 [4-124]	5 (Herbicidal rate of 90% or more (almost completely withered))	5 (Herbicidal rate of 90% or more (almost completely withered))	5 (Herbicidal rate of 90% or more (almost completely withered))	5 (Herbicidal rate of 90% or more (almost completely withered))	3 (Herbicidal rate of 40% or more and less than 70%)	4 (Herbicidal rate of 70% or more and less than 90%)	4 (Herbicidal rate of 70% or more and less than 90%)	5 (Herbicidal rate of 90% or more (almost completely withered))	3 (Herbicidal rate of 40% or more and less than 70%)	5 (Herbicidal rate of 90% or more (almost completely withered))	5 (Herbicidal rate of 90% or more (almost completely withered))	0 (Herbicidal rate of 5% or less (almost no effect))	2 (Herbicidal rate of 20% or more and less than 40%)	4 (Herbicidal rate of 70% or more and less than 90%)	5 (Herbicidal rate of 90% or more (almost completely withered))	3 (Herbicidal rate of 40% or more and less than 70%)					
CCCC(=O)Oc1c(C)nn(C)c(=O)c1-c1c(-c2ccccc2OC)sc2cc(F)c(F)cc12 [5-012]	5 (Herbicidal rate of 90% or more (almost completely withered))	4 (Herbicidal rate of 70% or more and less than 90%)	3 (Herbicidal rate of 40% or more and less than 70%)			4 (Herbicidal rate of 70% or more and less than 90%)		1 (Herbicidal rate of 5% or more and less than 20%)	0 (Herbicidal rate of 5% or less (almost no effect))	2 (Herbicidal rate of 20% or more and less than 40%)	0 (Herbicidal rate of 5% or less (almost no effect))	2 (Herbicidal rate of 20% or more and less than 40%)			4 (Herbicidal rate of 70% or more and less than 90%)		5 (Herbicidal rate of 90% or more (almost completely withered))	1 (Herbicidal rate of 5% or more and less than 20%)	3 (Herbicidal rate of 40% or more and less than 70%)	3 (Herbicidal rate of 40% or more and less than 70%)	R: persian speedwell, herbicidal effect grade (persian speedwell): 3 (Herbicidal rate of 40% or more and less than 70%); M: velvetleaf, herbicidal effect grade (velvetleaf [9]): 3 (Herbicidal rate of 40% or more and less than 70%)
COc1ccc(-c2sc3cc(Cl)c(Cl)cc3c2-c2c(O)c(C)nn(C)c2=O)cc1 [5-043]	5 (Herbicidal rate of 90% or more (almost completely withered))	0 (Herbicidal rate of 5% or less (almost no effect))	4 (Herbicidal rate of 70% or more and less than 90%)			5 (Herbicidal rate of 90% or more (almost completely withered))		0 (Herbicidal rate of 5% or less (almost no effect))	2 (Herbicidal rate of 20% or more and less than 40%)	0 (Herbicidal rate of 5% or less (almost no effect))	0 (Herbicidal rate of 5% or less (almost no effect))	0 (Herbicidal rate of 5% or less (almost no effect))			3 (Herbicidal rate of 40% or more and less than 70%)		0 (Herbicidal rate of 5% or less (almost no effect))	0 (Herbicidal rate of 5% or less (almost no effect))	0 (Herbicidal rate of 5% or less (almost no effect))	0 (Herbicidal rate of 5% or less (almost no effect))	R: persian speedwell, herbicidal effect grade (persian speedwell): 0 (Herbicidal rate of 5% or less (almost no effect)); M: velvetleaf, herbicidal effect grade (velvetleaf [9]): 0 (Herbicidal rate of 5% or less (almost no effect))

Source: patent US20230085307A1, “PYRIDAZINONE COMPOUND AND HERBICIDE” (NISSAN CHEMICAL CORPORATION, priority 2019, published 2023)
